ChEMBL document CHEMBL3991601, “The target landscape of clinical kinase drugs” (Science, 2017)
Counter-ions that a name gives are not always drawn. Calls of active or inactive are those of the source.

Experiments:
Deoxycytidine kinase = Deoxycytidine kinase (Homo sapiens, UniProt P27707)
[1] = target: Serine/threonine-protein kinase/endoribonuclease IRE2 (Homo sapiens, UniProt Q76MJ5)
[2] = target: T1, Mitogen-activated protein kinase kinase kinase 6 (Homo sapiens, UniProt O95382)
T1 sequence (O95382 whole entry): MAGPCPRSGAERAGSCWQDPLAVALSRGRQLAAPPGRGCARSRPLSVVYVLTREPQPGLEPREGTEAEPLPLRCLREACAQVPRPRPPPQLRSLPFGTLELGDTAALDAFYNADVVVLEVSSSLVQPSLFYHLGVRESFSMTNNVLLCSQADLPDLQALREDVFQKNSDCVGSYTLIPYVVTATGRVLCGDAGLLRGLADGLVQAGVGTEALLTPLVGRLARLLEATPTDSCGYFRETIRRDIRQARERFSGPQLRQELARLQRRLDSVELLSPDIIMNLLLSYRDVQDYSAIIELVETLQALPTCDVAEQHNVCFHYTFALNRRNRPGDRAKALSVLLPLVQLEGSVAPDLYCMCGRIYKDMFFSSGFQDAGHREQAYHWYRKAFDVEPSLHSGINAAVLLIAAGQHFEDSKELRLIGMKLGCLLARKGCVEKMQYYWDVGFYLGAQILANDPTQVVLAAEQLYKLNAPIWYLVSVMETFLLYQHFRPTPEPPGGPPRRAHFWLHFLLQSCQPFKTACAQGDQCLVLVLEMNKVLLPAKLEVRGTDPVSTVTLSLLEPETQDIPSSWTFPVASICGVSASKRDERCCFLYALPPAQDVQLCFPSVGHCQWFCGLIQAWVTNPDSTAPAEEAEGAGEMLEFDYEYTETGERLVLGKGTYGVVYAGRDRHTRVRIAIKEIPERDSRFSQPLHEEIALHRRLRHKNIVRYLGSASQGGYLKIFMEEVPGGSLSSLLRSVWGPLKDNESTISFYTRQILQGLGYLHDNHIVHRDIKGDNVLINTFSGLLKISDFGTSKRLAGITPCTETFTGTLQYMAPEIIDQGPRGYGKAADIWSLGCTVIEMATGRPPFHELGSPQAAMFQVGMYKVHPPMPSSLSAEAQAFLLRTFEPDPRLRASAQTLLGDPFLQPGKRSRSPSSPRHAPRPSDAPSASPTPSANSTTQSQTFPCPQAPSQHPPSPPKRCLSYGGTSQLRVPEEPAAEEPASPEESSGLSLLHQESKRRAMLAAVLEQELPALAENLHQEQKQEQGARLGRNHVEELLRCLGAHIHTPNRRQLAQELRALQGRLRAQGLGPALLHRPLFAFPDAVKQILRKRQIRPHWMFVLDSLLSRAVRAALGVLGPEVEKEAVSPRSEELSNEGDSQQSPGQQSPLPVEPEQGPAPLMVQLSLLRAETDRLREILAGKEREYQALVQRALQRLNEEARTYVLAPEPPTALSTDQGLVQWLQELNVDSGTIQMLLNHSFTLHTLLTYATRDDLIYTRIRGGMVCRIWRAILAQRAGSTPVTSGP

[3] = target: Mitogen-activated protein kinase kinase kinase kinase 4 (Homo sapiens, UniProt O95819)
Sequence of Mitogen-activated protein kinase kinase kinase kinase 4 (O95819 whole entry): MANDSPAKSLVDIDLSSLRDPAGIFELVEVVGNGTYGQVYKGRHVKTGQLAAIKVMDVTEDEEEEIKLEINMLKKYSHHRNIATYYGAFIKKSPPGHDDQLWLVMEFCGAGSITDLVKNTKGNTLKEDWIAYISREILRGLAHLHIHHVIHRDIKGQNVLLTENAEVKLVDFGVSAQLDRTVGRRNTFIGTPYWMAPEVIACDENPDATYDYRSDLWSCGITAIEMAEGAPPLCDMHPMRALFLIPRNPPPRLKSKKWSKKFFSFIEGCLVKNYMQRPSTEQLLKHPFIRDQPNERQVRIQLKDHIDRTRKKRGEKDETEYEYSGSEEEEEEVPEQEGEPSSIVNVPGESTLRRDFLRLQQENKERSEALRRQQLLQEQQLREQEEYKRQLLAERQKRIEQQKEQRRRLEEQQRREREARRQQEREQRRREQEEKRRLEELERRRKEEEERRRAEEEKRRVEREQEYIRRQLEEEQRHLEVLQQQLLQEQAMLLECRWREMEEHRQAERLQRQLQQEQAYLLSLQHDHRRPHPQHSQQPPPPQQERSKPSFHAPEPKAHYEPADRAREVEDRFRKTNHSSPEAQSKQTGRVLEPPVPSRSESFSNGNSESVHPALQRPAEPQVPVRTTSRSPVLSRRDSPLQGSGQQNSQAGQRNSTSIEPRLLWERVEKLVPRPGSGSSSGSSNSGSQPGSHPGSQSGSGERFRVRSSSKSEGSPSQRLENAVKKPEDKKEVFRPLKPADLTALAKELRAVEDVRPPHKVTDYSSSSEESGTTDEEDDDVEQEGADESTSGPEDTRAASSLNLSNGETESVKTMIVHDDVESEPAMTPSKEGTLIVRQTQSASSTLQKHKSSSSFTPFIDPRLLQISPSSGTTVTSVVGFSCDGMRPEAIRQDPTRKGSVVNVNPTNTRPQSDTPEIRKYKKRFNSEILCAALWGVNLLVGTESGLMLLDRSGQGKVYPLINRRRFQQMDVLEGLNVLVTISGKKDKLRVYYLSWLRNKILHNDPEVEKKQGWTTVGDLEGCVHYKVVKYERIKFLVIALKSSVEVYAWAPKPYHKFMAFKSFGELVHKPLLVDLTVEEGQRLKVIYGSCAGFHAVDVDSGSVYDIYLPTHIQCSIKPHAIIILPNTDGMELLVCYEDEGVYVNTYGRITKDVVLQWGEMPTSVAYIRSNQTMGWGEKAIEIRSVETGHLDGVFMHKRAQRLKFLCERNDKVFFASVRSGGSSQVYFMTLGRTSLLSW

[4] = target: Cyclin-dependent kinase 4 (Homo sapiens, UniProt P11802)
Sequence of Cyclin-dependent kinase 4 (P11802 whole entry): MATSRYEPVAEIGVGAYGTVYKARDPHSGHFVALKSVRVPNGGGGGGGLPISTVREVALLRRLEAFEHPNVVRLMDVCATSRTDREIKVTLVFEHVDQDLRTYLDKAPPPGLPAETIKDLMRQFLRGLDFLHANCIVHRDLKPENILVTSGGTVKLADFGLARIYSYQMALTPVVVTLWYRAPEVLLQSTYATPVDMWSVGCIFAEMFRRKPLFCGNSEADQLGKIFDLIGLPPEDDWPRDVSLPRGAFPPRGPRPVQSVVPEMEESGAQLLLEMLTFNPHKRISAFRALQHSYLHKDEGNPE

[5] = target: T2, NUAK family SNF1-like kinase 2 (Homo sapiens, UniProt Q9H093)
T2 sequence (Q9H093 whole entry): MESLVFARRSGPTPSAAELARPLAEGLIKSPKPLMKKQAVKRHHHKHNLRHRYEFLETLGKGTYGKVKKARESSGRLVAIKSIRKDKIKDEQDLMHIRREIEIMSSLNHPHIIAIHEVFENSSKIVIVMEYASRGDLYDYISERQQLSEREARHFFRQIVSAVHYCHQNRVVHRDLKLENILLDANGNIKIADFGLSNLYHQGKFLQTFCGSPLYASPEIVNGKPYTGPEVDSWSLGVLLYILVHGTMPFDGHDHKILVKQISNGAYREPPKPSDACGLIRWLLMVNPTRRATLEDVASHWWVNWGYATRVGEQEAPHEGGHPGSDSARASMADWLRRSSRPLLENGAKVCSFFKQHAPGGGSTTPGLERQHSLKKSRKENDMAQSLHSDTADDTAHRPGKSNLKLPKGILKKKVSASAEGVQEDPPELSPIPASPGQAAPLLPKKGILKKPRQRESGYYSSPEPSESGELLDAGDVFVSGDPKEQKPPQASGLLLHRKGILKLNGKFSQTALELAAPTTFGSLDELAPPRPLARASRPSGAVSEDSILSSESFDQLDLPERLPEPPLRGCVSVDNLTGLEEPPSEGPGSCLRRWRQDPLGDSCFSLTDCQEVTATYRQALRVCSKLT

[6] = target: Casein kinase I isoform alpha (Homo sapiens, UniProt P48729)
Sequence of Casein kinase I isoform alpha (P48729 whole entry, canonical isoform): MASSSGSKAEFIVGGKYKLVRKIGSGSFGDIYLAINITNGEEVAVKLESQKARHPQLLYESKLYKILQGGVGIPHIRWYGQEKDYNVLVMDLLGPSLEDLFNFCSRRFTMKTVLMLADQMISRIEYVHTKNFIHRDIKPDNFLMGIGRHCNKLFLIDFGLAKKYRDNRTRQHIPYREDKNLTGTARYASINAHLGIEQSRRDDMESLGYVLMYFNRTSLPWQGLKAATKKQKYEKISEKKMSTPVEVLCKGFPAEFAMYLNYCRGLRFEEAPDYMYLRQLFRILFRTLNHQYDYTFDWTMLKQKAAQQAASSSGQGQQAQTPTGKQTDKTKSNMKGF

[7] = target: T3, MAP/microtubule affinity-regulating kinase 4 (Homo sapiens, UniProt Q96L34)
T3 sequence (Q96L34 whole entry): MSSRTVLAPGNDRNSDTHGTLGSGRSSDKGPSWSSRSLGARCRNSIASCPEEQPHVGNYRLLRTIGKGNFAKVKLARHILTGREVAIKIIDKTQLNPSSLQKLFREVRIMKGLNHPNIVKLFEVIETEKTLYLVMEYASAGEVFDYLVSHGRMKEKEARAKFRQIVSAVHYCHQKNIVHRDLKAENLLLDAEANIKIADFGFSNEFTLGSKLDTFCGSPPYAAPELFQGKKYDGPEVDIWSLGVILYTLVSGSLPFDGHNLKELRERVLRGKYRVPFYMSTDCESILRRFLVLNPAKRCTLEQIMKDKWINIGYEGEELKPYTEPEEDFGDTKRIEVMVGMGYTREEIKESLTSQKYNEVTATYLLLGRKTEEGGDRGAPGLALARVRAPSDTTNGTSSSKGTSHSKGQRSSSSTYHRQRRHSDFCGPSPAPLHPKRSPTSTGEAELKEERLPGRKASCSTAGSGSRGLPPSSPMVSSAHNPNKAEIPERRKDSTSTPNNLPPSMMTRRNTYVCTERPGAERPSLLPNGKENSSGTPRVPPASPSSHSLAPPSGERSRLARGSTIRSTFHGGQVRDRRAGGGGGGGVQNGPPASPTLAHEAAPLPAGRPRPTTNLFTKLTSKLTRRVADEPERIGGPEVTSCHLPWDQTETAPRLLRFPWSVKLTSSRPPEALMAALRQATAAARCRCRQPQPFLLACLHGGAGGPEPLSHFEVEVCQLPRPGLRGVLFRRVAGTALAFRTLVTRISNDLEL
Further: in the data inactive means no Kd found up to 30 µM.

Sequence of Deoxycytidine kinase (P27707 whole entry): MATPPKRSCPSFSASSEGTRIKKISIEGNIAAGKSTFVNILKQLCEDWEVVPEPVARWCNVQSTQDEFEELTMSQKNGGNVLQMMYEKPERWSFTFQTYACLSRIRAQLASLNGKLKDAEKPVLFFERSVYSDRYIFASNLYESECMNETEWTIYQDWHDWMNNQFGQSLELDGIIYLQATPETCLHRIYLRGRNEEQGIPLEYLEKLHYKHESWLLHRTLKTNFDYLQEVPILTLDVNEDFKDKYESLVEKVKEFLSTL
Sequence of Serine/threonine-protein kinase/endoribonuclease IRE2 (Q76MJ5 whole entry): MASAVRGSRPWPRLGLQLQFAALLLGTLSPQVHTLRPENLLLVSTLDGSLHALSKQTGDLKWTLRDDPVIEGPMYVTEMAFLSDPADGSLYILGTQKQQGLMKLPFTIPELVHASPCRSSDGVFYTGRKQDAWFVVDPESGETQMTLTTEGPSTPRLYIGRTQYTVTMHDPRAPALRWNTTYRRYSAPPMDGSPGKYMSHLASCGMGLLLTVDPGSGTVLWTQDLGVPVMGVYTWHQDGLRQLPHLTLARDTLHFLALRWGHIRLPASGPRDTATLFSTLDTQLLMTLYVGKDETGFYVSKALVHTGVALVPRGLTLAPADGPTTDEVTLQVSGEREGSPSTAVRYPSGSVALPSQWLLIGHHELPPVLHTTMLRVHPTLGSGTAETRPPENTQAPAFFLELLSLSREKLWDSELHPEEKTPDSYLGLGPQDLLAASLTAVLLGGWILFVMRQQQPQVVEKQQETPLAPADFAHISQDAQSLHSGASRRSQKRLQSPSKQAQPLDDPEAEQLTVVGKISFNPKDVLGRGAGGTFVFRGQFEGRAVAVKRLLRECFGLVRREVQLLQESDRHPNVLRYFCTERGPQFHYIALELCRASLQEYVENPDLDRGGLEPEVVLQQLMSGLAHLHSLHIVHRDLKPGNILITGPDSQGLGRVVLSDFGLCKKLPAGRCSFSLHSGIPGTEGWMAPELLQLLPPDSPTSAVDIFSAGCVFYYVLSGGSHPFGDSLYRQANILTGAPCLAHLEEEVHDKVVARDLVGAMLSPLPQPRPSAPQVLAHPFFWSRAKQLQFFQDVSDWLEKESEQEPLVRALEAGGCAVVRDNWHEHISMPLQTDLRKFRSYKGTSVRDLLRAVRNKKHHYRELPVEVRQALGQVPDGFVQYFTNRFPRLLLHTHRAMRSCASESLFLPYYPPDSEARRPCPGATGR

Row | SMILES | Kd (Deoxycytidine kinase) | Kd [1] | Kd [2] | Kd [3] | Kd [4] | Kd [5] | Kd [6] | Kd [7]
1 | C=CC(=O)Nc1cc2c(Nc3ccc(F)c(Cl)c3)ncnc2cc1C#CC(C)(C)N1CCN(C)CC1 [AV-412 FREE BASE] | > 30 µM (inactive) | > 30 µM (inactive) | > 30 µM (inactive) | > 30 µM (inactive) | > 30 µM (inactive) | > 30 µM (inactive) | > 30 µM (inactive) | > 30 µM (inactive)
2 | Cc1cc(C(=O)NOCCO)c(Nc2ccc(I)cc2F)n(C)c1=O [AZD-8330] | > 30 µM (inactive) | > 30 µM (inactive) | > 30 µM (inactive) | > 30 µM (inactive) | > 30 µM (inactive) | > 30 µM (inactive) | > 30 µM (inactive) | > 30 µM (inactive)
3 | Cn1cnc2c(F)c(Nc3ccc(Br)cc3F)c(C(=O)NOCCO)cc21 [BINIMETINIB] | > 30 µM (inactive) | > 30 µM (inactive) | > 30 µM (inactive) | > 30 µM (inactive) | > 30 µM (inactive) | > 30 µM (inactive) | > 30 µM (inactive) | > 30 µM (inactive)
4 | CCn1c(C(=O)N(C2CC2)C2CC2)cc2c3c(ncn3C)c(Nc3cc(C)n(C)n3)nc21 [BMS-911543] | > 30 µM (inactive) | > 30 µM (inactive) | > 30 µM (inactive) | > 30 µM (inactive) | > 30 µM (inactive) | > 30 µM (inactive) | > 30 µM (inactive) | > 30 µM (inactive)
5 | COc1cc2ncnc(Oc3cccc(NC(=O)Nc4cc(C(C)(C)C(F)(F)F)on4)c3)c2cc1OC [CEP-32496] | > 30 µM (inactive) | > 30 µM (inactive) | > 30 µM (inactive) | > 30 µM (inactive) | > 30 µM (inactive) | > 30 µM (inactive) | > 30 µM (inactive) | > 30 µM (inactive)
6 | Cc1cc(Nc2ncc(Cl)c(Nc3ccccc3S(=O)(=O)C(C)C)n2)c(OC(C)C)cc1C1CCNCC1 [CERITINIB] | > 30 µM (inactive) | > 30 µM (inactive) | > 30 µM (inactive) | > 30 µM (inactive) | > 30 µM (inactive) | > 30 µM (inactive) | > 30 µM (inactive) | > 30 µM (inactive)
7 | COc1c(OCCCN2CCOCC2)ccc2c1N=C(NC(=O)c1cnc(N)nc1)N1CCN=C21 [COPANLISIB] | > 30 µM (inactive) | > 30 µM (inactive) | > 30 µM (inactive) | > 30 µM (inactive) | > 30 µM (inactive) | > 30 µM (inactive) | > 30 µM (inactive) | > 30 µM (inactive)
8 | COCC(=O)NC/C=C/c1ccc2ncnc(Nc3ccc(Oc4ccc(C)nc4)c(C)c3)c2c1 [CP-724714] | > 30 µM (inactive) | > 30 µM (inactive) | > 30 µM (inactive) | > 30 µM (inactive) | > 30 µM (inactive) | > 30 µM (inactive) | > 30 µM (inactive) | > 30 µM (inactive)
9 | C#Cc1cccc(Nc2ncnc3cc(OC)c(OCCCCCCC(=O)NO)cc23)c1 [CUDC-101] | > 30 µM (inactive) | > 30 µM (inactive) | > 30 µM (inactive) | > 30 µM (inactive) | > 30 µM (inactive) | > 30 µM (inactive) | > 30 µM (inactive) | > 30 µM (inactive)
10 | CCS(=O)(=O)N1CCN(c2ccc(Nc3ncc(C(N)=O)c(NC4CC4)n3)cc2)CC1 [Cerdulatinib Hydrochloride] | > 30 µM (inactive) | > 30 µM (inactive) | 0.473 µM (active) | 3.06 µM (active) | > 30 µM (inactive) | > 30 µM (inactive) | > 30 µM (inactive) | > 30 µM (inactive)
11 | Cc1nc2cc(-n3ncc(C(=O)c4cc5ccccc5[nH]4)c3N)ccc2[nH]1 [FGFR INHIBITOR DEBIO 1347] | > 30 µM (inactive) | > 30 µM (inactive) | > 30 µM (inactive) | > 30 µM (inactive) | > 30 µM (inactive) | > 30 µM (inactive) | > 30 µM (inactive) | > 30 µM (inactive)
12 | O=C(Nc1nc2cccc(-c3ccc(CN4CCS(=O)(=O)CC4)cc3)n2n1)C1CC1 [FILGOTINIB] | > 30 µM (inactive) | > 30 µM (inactive) | > 30 µM (inactive) | > 30 µM (inactive) | > 30 µM (inactive) | > 30 µM (inactive) | > 30 µM (inactive) | > 30 µM (inactive)
13 | COc1ccc(S(=O)(=O)N(C(C)=O)c2ccccc2/C=C/c2cc[n+]([O-])cc2)cc1 [HMN-214] | > 30 µM (inactive) | > 30 µM (inactive) | > 30 µM (inactive) | > 30 µM (inactive) | > 30 µM (inactive) | > 30 µM (inactive) | > 30 µM (inactive) | > 30 µM (inactive)
14 | CNC(=O)c1cccc2cc(Oc3ccnc4cc(OCC5(N)CC5)c(OC)cc34)ccc12 [LUCITANIB] | > 30 µM (inactive) | > 30 µM (inactive) | > 30 µM (inactive) | > 30 µM (inactive) | > 30 µM (inactive) | > 30 µM (inactive) | > 30 µM (inactive) | > 30 µM (inactive)
15 | NC1(c2ccc(-c3nc4ccn5c(=O)[nH]nc5c4cc3-c3ccccc3)cc2)CCC1 [MK-2206] | > 30 µM (inactive) | > 30 µM (inactive) | > 30 µM (inactive) | > 30 µM (inactive) | > 30 µM (inactive) | > 30 µM (inactive) | > 30 µM (inactive) | > 30 µM (inactive)
16 | Cn1cc(-c2cnc3ccc4ccc(CS(=O)(=O)NCc5ccccn5)cc4c(=O)c3c2)cn1 [MK-8033] | > 30 µM (inactive) | > 30 µM (inactive) | > 30 µM (inactive) | > 30 µM (inactive) | > 30 µM (inactive) | > 30 µM (inactive) | > 30 µM (inactive) | > 30 µM (inactive)
